Reference: ChEMBL document CHEMBL5385912, “Macrocycles and Acyclic Cucurbit[n]urils as Pseudo[2]catenane Partners for Long-Acting Neuromuscular Blocks and Rapid Reversal In Vivo” (J Med Chem, 2024)
Active and inactive are the calls of the source. The rule behind the calls is not given here.

What was measured:
Rattus norvegicus [1] = species: Rattus norvegicus; test: Neuromuscular blocking in Sprague-Dawley rat assessed as inhibition of electrical stimulation induced twitch amplitude; type: functional
Rattus norvegicus [2] = test: Neuromuscular blocking in Sprague-Dawley rat assessed as duration time to TOF ratio of 0.25 recovery at 1.6 mg/kg, iv; type: functional
Rattus norvegicus [3] = test: Neuromuscular blocking in Sprague-Dawley rat assessed as duration time to TOF ratio of 0.25 recovery at 2.4 mg/kg, iv; type: functional
H9c2 = test: Cytotoxicity against rat H9C2 cells at 512 ug/ml incubated for 24 hrs by CCK8 assay; type: toxicity, cell-based; details: h9c2, 24 h, dose 512 µg/ml
L02 = test: Cytotoxicity against L02 cells at 512 ug/ml incubated for 24 hrs by CCK8 assay; type: toxicity, cell-based; details: human, l02, 24 h, dose 512 µg/ml
Erythrocyte [4] = test: Hemolysis in human RBC; type: toxicity, cell-based
Erythrocyte [5] = test: Hemolysis in rat RBC; type: toxicity, cell-based
[6] = Toxicity in Sprague-Dawley rat at 9 mg/kg, iv measured after 1 hr; type: organism-based; details: in vivo
[7] = Solubility of compound in Na2HPO4/NaH2PO4 buffer; type: physicochemical
[8] = Solubility of compound in phosphate buffer; type: physicochemical
Rattus norvegicus [9] = test: (§1) Reversal of 2,27-dioxa-11,18,36,43-tetraza-8,21,33,46-tetrazoniaundecacyclo[46.2.2.23,6.213,16.223,26.228,31.238,41.18,11.118,21.133,36.143,46]hexahexaconta-1(50),3,5,8(64),9,13(63),14,16(62),19,21(61),23,25,28,30,33(56),34,38,40,44,46(53),48,51,54,57,59,65-hexacosaene tetrachloride induced neuromuscular block in Sprague-Dawley rat assessed as recovery time at 2.5 mg/kg, iv; type: functional
Rattus norvegicus [10] = test: as §1, with “10” for “2.5”; type: functional
Rattus norvegicus [11] = test: Neuromuscular blocking in Sprague-Dawley rat assessed as inhibition of electrical stimulation induced twitch amplitude at 0.8 mg/kg, iv; type: functional, organism-based
Rattus norvegicus [12] = test: as §1, with “20” for “2.5”; type: functional
Rattus norvegicus [13] = test: as §1, with “50” for “2.5”, “iv after 1 min” for “iv”; type: functional
[14] = Toxicity in ICR mouse assessed as maximal tolerated dose; details: in vivo
[15] = Toxicity in ICR mouse assessed as weight loss at 400 mg/kg, iv measured after 1 day; type: organism-based; details: in vivo, 24 h
[16] = Toxicity in ICR mouse assessed as heart abnormality at 200 to 400 mg/kg after 14 days by H and E staining based optical microscopic analysis; type: organism-based; details: in vivo, 336 h, dose 200-400 mg/kg, time 14 day
[17] = Toxicity in ICR mouse assessed as liver abnormality at 200 to 400 mg/kg after 14 days by H and E staining based optical microscopic analysis; type: organism-based; details: in vivo, 336 h, dose 200-400 mg/kg, time 14 day
[18] = Toxicity in ICR mouse assessed as spleen abnormality at 200 to 400 mg/kg after 14 days by H and E staining based optical microscopic analysis; type: organism-based; details: in vivo, 336 h, dose 200-400 mg/kg, time 14 day
[19] = Toxicity in ICR mouse assessed as lung abnormality at 200 to 400 mg/kg after 14 days by H and E staining based optical microscopic analysis; type: organism-based; details: in vivo, 336 h, dose 200-400 mg/kg, time 14 day
[20] = Toxicity in ICR mouse assessed as kidney abnormality at 200 to 400 mg/kg after 14 days by H and E staining based optical microscopic analysis; type: organism-based; details: in vivo, 336 h, dose 200-400 mg/kg, time 14 day
Rattus norvegicus [21] = test: Neuromuscular blocking in Sprague-Dawley rat assessed as duration time to TOF ratio of 0.25 recovery at 3.5 mg/kg, iv; type: functional
Rattus norvegicus [22] = test: as §1, with “0.36” for “2.5”; type: functional

[Cl-].[Cl-].[Cl-].[Cl-].c1cc2ccc1Cn1cc[n+](c1)Cc1ccc(cc1)Oc1ccc(cc1)C[n+]1ccn(c1)Cc1ccc(cc1)Cn1cc[n+](c1)Cc1ccc(cc1)Oc1ccc(cc1)C[n+]1ccn(c1)C2
ED90 (Rattus norvegicus [1]): 0.8 mg/kg
Time (Rattus norvegicus [2]): 1785 s
Time (Rattus norvegicus [3]): 4965 s
Activity (H9c2): Non-Toxic
Activity (L02): Non-Toxic
Activity (Erythrocyte [4]): Non-Toxic
Activity (Erythrocyte [5]): Non-Toxic
Activity [6]: Non-Toxic
solubility [7]: 78 mg/mL

C[C@]12N3Cc4c(c(OCCCS(=O)(=O)[O-])c5ccccc5c4OCCCS(=O)(=O)[O-])CN1C(=O)N1CN4C(=O)N5CN6C(=O)N7CN8C(=O)N9Cc%10c(c(OCCCS(=O)(=O)[O-])c%11ccccc%11c%10OCCCS(=O)(=O)[O-])CN%10C(=O)N(CN%11C(=O)N(CN%12C(=O)N(CN(C3=O)[C@]12C)[C@@H]4[C@H]%125)[C@@H]6[C@H]%117)[C@]8(C)[C@@]9%10C.[Na+].[Na+].[Na+].[Na+]
solubility [8]: 29.5 mg/mL
Time (Rattus norvegicus [9]): 215 s
Time (Rattus norvegicus [10]): 18 s

c1cc2ccc1Cn1cc[n+](c1)Cc1ccc(cc1)C[n+]1ccn(c1)Cc1ccc(cc1)O2
Activity (Rattus norvegicus [11]): inactive

C[C@]12N3Cc4c(OCCCC(=O)[O-])ccc(OCCCC(=O)[O-])c4CN1C(=O)N1CN4C(=O)N5CN6C(=O)N7CN8C(=O)N9Cc%10c(OCCCC(=O)[O-])ccc(OCCCC(=O)[O-])c%10CN%10C(=O)N(CN%11C(=O)N(CN%12C(=O)N(CN(C3=O)[C@]12C)[C@@H]4[C@H]%125)[C@@H]6[C@H]%117)[C@]8(C)[C@@]9%10C.[Na+].[Na+].[Na+].[Na+]
solubility [8]: 549 mg/mL
Time (Rattus norvegicus [9]): 411 s
Time (Rattus norvegicus [10]): 18 s

c1ccc(C[n+]2ccn(Cc3ccc(Oc4ccc(Cn5cc[n+](Cc6ccccc6)c5)cc4)cc3)c2)cc1
Activity (Rattus norvegicus [11]): inactive

C[C@]12N3Cc4c(c(OCCCC(=O)[O-])c5ccccc5c4OCCCC(=O)[O-])CN1C(=O)N1CN4C(=O)N5CN6C(=O)N7CN8C(=O)N9Cc%10c(c(OCCCC(=O)[O-])c%11ccccc%11c%10OCCCC(=O)[O-])CN%10C(=O)N(CN%11C(=O)N(CN%12C(=O)N(CN(C3=O)[C@]12C)[C@@H]4[C@H]%125)[C@@H]6[C@H]%117)[C@]8(C)[C@@]9%10C.[Na+].[Na+].[Na+].[Na+]
solubility [8]: 293 mg/mL
Time (Rattus norvegicus [9]): 205 s
Time (Rattus norvegicus [10]): 16 s
Time (Rattus norvegicus [12]): 17 s
Activity (H9c2): Non-Toxic
Activity (L02): Non-Toxic
Activity (Erythrocyte [4]): Non-Toxic
Activity (Erythrocyte [5]): Non-Toxic
Activity (Rattus norvegicus [13]): 100%
MTD [14]: 550 mg/kg
Activity [15]: Toxic
Activity [16]: Non-Toxic
Activity [17]: Non-Toxic
Activity [18]: Non-Toxic
Activity [19]: Non-Toxic
Activity [20]: Non-Toxic

C=CC[N+]1([C@H]2C[C@H]3[C@@H]4CC[C@H]5C[C@H](O)[C@@H](N6CCOCC6)C[C@]5(C)[C@H]4CC[C@]3(C)[C@H]2OC(C)=O)CCCC1 [ROCURONIUM]
Time (Rattus norvegicus [21]): 497 s

Cc1c(C)c(OCCCC(=O)[O-])c2c(c1OCCCC(=O)[O-])CN1C(=O)N3CN4C(=O)N5CN6C(=O)N7CN8C(=O)N9Cc%10c(c(OCCCC(=O)[O-])c(C)c(C)c%10OCCCC(=O)[O-])CN%10C(=O)N(CN%11C(=O)N(CN%12C(=O)N(CN%13C(=O)N(C2)[C@]1(C)[C@]%133C)[C@@H]4[C@@H]5%12)[C@@H]6[C@@H]7%11)[C@]8(C)[C@]%109C.[Na+].[Na+].[Na+].[Na+]
solubility [8]: 400 mg/mL
Time (Rattus norvegicus [9]): 259 s
Time (Rattus norvegicus [10]): 16 s

CN(C)C(=O)Oc1cccc([N+](C)(C)C)c1 [NEOSTIGMINE]
Time (Rattus norvegicus [22]): 694 s

c1cc2ccc1C[n+]1ccc(cc1)-c1cc[n+](cc1)Cc1ccc(cc1)C[n+]1ccc(cc1)-c1cc[n+](cc1)C2
Activity (Rattus norvegicus [11]): inactive

O=C(O)CCSC[C@H]1O[C@@H]2O[C@H]3[C@H](O)[C@@H](O)[C@@H](O[C@H]4[C@H](O)[C@@H](O)[C@@H](O[C@H]5[C@H](O)[C@@H](O)[C@@H](O[C@H]6[C@H](O)[C@@H](O)[C@@H](O[C@H]7[C@H](O)[C@@H](O)[C@@H](O[C@H]8[C@H](O)[C@@H](O)[C@@H](O[C@H]9[C@H](O)[C@@H](O)[C@@H](O[C@H]1[C@H](O)[C@H]2O)O[C@@H]9CSCCC(=O)O)O[C@@H]8CSCCC(=O)O)O[C@@H]7CSCCC(=O)O)O[C@@H]6CSCCC(=O)O)O[C@@H]5CSCCC(=O)O)O[C@@H]4CSCCC(=O)O)O[C@@H]3CSCCC(=O)O
Time (Rattus norvegicus [12]): 1175 s

[Cl-].[Cl-].[Cl-].[Cl-].c1cc2ccc1Cc1ccc(cc1)C[n+]1ccn(c1)Cc1ccc(cc1)Cn1cc[n+](c1)Cc1ccc(cc1)Cc1ccc(cc1)C[n+]1ccn(c1)Cc1ccc(cc1)Cn1cc[n+](c1)C2
ED90 (Rattus norvegicus [1]): 1.16 mg/kg
Activity (Rattus norvegicus [11]): inactive
solubility [7]: 58 mg/mL

COc1ccc(Cn2cc[n+](Cc3ccc(C[n+]4ccn(Cc5ccc(OC)cc5)c4)cc3)c2)cc1
Activity (Rattus norvegicus [11]): inactive

[Cl-].[Cl-].[Cl-].[Cl-].c1cc2ccc1Cn1cc[n+](c1)Cc1ccc(cc1)-c1ccc(cc1)C[n+]1ccn(c1)Cc1ccc(cc1)Cn1cc[n+](c1)Cc1ccc(cc1)-c1ccc(cc1)C[n+]1ccn(c1)C2
ED90 (Rattus norvegicus [1]): 1.07 mg/kg
Activity (Rattus norvegicus [11]): inactive
solubility [7]: 21 mg/mL
